From PMC11359702, “Synthesis and Biochemical Evaluation of Ethanoanthracenes and Related Compounds: Antiproliferative and Pro-Apoptotic Effects in Chronic Lymphocytic Leukemia (CLL)” (Pharmaceuticals, 2024)
pIC50: −log10 of the molar value. Where two headings read alike, the source gives them in different places.

Assays:
[1] = tested on: HG-3 and PGA-1 cell lines; experiment: alamarBlue cell viability assay, mean of both CLL cell lines; assay type: cell-based, human; details: Homo sapiens, CLL cell; mean of HG-3 and PGA-1
HG-3 cells = experiment: alamarBlue cell viability assay; details: Homo sapiens, HG-3, 24 h; for pIC50: read-out: HG-3 IC50; for viability at 10 µM: read-out: cell viability, HG-3, 10 µM, 24 h, vehicle = 100%; for viability at 1 µM: read-out: cell viability, HG-3, 1 µM, 24 h, vehicle = 100%
PGA-1 cells = experiment: alamarBlue cell viability assay; details: Homo sapiens, 24 h; for pIC50: read-out: PGA-1 IC50; for viability at 10 µM: read-out: cell viability
[2] = HPLC stability study in phosphate buffers; assay type: physicochemical; details: for recovery at 24 h: over the pH range studied (pH 4, 7.4 and 9); for remaining at 24 h, 14.6 µg/mL / half-life at 14.6 µg/mL: phosphate buffer, 37 °C; for remaining at 24 h, 14.6 µg/mL: HPLC
Description: A preliminary stability study was carried out on selected chalcones, maleic anhydride and maleimide adducts at acidic, neutral and basic conditions (pH 4, 7.4 and 9) using HPLC to determine suitability for further preclinical investigations. […] A possible degradation route for the maleimide 23n could be through the hydrolysis of the cyclic imide of the maleimide ring, leading to the resultant amic acid product.
All samples were analyzed using acetonitrile–water (80:20%, 70:30%, 60:40% isocratic) as the mobile phase over 10 min and a flow rate of 1 mL/min. Stock solutions were prepared by dissolving 5 mg of compounds in a mobile phase ([(acetonitrile (80%): water (20%)], 10 mL). Anhydride 22h was not detected at its retention time of 5.2 min at pH 9.0. The data presented represent the results of single experiments.
The HPLC stability studies for compounds 21a, 21i, 22h, 23a, 23g, 23n, 24a, 24h, 26a and 26n were performed using a Symmetry® column (C18, 5 µm, 4.6 × 150 mm), a Waters 2487 Dual Wavelength Absorbance detector, and an HPLC pump: Waters 1525 binary and Autosampler; Waters 717 plus (Waters Corporation, Milford, MA, USA), mobile phase [(acetonitrile (80%) and water (20%)] with a typical run time of 10 min and a flow rate of 1 mL/min with detection at 254 nm. The selected compounds 21a, 21i, 22h, 23a, 23g, 23n, 24a, 24h, 26a and 26n (5 mg) in the mobile phase (10 mL) provided the stock solution for the analysis. The phosphate buffers were prepared at pH values of 4, 7.4 and 9, as described in the British Pharmacopoeia monograph 2019. The stock solution (30 µL) was added to the appropriate buffer (1 mL) and retained at 37 °C. Samples were then analyzed over the following 24-h period at selected time intervals (t = 0 min, 5 min, 30 min, 60 min, 90 min, 120 min and 24 h).

[3] = pH 4 buffer, read-out: % remaining 24 h pH 4
[4] = pH 4 buffer, read-out: Half-life pH 4 (converted)
[5] = pH 7.4 buffer, read-out: % remaining 24 h pH 7.4
[6] = pH 7.4 buffer, read-out: Half-life pH 7.4 (converted)
[7] = pH 9 buffer, read-out: % remaining 24 h pH 9
[8] = pH 9 buffer, read-out: Half-life pH 9 (converted)

SMILES | pIC50 [1] | pIC50 (HG-3 cells) | viability at 10 µM (HG-3 cells) | pIC50 (PGA-1 cells) | viability at 10 µM (PGA-1 cells) | other results
COc1c2ccccc2c(/C=C/[N+](=O)[O-])c2ccccc12 [Compound 18b, reference compound] | 6.14 | – | – | – | – | –
O=C1C2C3c4ccccc4C(C=C[N+](=O)[O-])(c4ccccc43)C2C(=O)N1c1ccc(Cl)cc1 (centres unmarked) [Compound 20b] | 6.12 | 6.07 | 8% | 6.18 | 3% | –
O=C(c1ccccc1)c1ccc(N2C(=O)C3C4c5ccccc5C(/C=C/[N+](=O)[O-])(c5ccccc54)C3C2=O)cc1 (centres unmarked) [Compound 20c] | 6.10 | 6.15 | 11% | 6.06 | 4% | –
O=C1NC(=O)C2C1C1c3ccccc3C2(C=C[N+](=O)[O-])c2ccccc21 (centres unmarked) [Compound 20d] | 6.11 | 6.11 | 14 to 43% | 6.12 | 17% | –
N#CC1CC2c3ccccc3C1(/C=C/[N+](=O)[O-])c1ccccc12 (centres unmarked) [Compound 20e] | 5.85 | 5.80 | 14 to 43% | 5.96 | 3% | –
O=C1C2C(C(=O)N1c1ccccc1)C1(/C=C/[N+](=O)[O-])c3ccccc3C2(Cl)c2ccccc21 (centres unmarked) [Compound 20g] | – | – | 2% | – | 1% | –
O=C1OC(=O)C2C1C1c3ccccc3C2(/C=C/[N+](=O)[O-])c2ccccc21 (centres unmarked) [Compound 20h] | – | – | 31% | – | 2% | –
O=C(/C=C/c1c2ccccc2cc2ccccc12)c1ccc(Br)cc1 [Compound 21a, (E)-3-(anthracen-9-yl)-1-(4-bromophenyl)prop-2-en-1-one] | – | – | – | – | – | recovery at 24 h [2]: < 50%; remaining at 24 h, 14.6 µg/mL [2, 3]: 46.3%; half-life at 14.6 µg/mL [2, 4]: 3.25 h; remaining at 24 h, 14.6 µg/mL [2, 5]: 38.6%; half-life at 14.6 µg/mL [2, 6]: 2 h; remaining at 24 h, 14.6 µg/mL [2, 7]: 38.6%; half-life at 14.6 µg/mL [2, 8]: 1.5 h
O=C(/C=C/c1c2ccccc2cc2ccccc12)c1ccc(Cl)cc1Cl [Compound 21d, (E)-3-(anthracen-9-yl)-1-(2,4-dichlorophenyl)prop-2-en-1-one] | – | – | 37 to 54% | – | 50% | viability at 1 µM (HG-3 cells): 50 to 61%
COc1ccc(C(=O)/C=C/c2c3ccccc3cc3ccccc23)cc1OC [Compound 21e, (E)-3-(Anthracen-9-yl)-1-(3,4-dimethoxyphenyl)prop-2-en-1-one] | – | – | 37 to 54% | – | – | viability at 1 µM (HG-3 cells): 50 to 61%
O=C(/C=C/c1c2ccccc2cc2ccccc12)c1ccc(F)cc1 [Compound 21h, (E)-3-(anthracen-9-yl)-1-(4-fluorophenyl)prop-2-en-1-one] | – | – | – | – | 70% | –
COc1ccc(C(=O)/C=C/c2c3ccccc3cc3ccccc23)cc1 [Compound 21i, (E)-3-(anthracen-9-yl)-1-(4-methoxyphenyl)prop-2-en-1-one] | – | – | – | – | 49% | recovery at 24 h [2]: < 50%; remaining at 24 h, 14.6 µg/mL [2, 3]: 27.9%; half-life at 14.6 µg/mL [2, 4]: ~11.5 h; remaining at 24 h, 14.6 µg/mL [2, 5]: 26.6%; half-life at 14.6 µg/mL [2, 6]: 3.85 h; remaining at 24 h, 14.6 µg/mL [2, 7]: 42.1%; half-life at 14.6 µg/mL [2, 8]: ~11.5 h
O=C(/C=C/c1c2ccccc2cc2ccccc12)c1ccc(Cl)cc1 [Compound 21l, (E)-3-(anthracen-9-yl)-1-(4-chlorophenyl)prop-2-en-1-one] | – | – | – | – | 70% | –
